{"source": "patent US20240140957A1", "about": "“BRIDGED COMPOUNDS AS KRAS G12D INHIBITOR AND DEGRADER AND THE USE THEREOF” (BeiGene Switzerland GmbH, priority 2021, published 2024)"}
{"target": "GDP-loaded KRAS G12D (Homo sapiens, UniProt P01116, G12D)", "sequence (P01116 1-188 isoform P01116-2 G12D)": "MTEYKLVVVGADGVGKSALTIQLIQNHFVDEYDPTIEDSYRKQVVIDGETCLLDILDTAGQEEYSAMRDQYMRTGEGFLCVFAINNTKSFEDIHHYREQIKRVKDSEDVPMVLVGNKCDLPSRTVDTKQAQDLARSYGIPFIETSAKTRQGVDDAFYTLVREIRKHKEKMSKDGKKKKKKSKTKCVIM", "experiment": "KRAS G12D Probe Displacement Assay", "type": "binding", "settings": "KRAS G12D 0.5 nM, biotinylated probe 2 4 nM; Table 6 letters; read-out: KRAS G12D Probe Displacement Assay IC50 (class)", "units": {"IC50": "nM"}}
{"smiles": "CN1C[C@H](F)C[C@]1(C)COc1nc(N2C3CNCC2COC3)c2cc(C(F)(F)F)c(-c3ccc(F)c4sc(N)nc34)c(F)c2n1", "note": "[Example E122, 4-(4-(3-oxa-7,9-diazabicyclo[3.3.1]nonan-9-yl)-8-fluoro-2-(((2R,4R)-4-fluoro-1,2-dimethylpyrrolidin-2-yl)methoxy)-6-(trifluoromethyl)quinazolin-7-yl)-7-fluorobenzo[d]thiazol-2-amine]", "IC50": "< 50"}
{"smiles": "Oc1cc(Cl)c(C2CC2)c(-c2c(Cl)cc3c(N4CC5CCC(C4)N5)nc(OC[C@@]45CCCN4C[C@H](F)C5)nc3c2F)c1", "note": "[Example E123, 3-(4-(3,8-diazabicyclo[3.2.1]octan-3-yl)-6-chloro-8-fluoro-2-(((2R,7aS)-2-fluorotetrahydro-1H-pyrrolizin-7a(5H)-yl)methoxy)quinazolin-7-yl)-5-chloro-4-cyclopropylphenol]", "IC50": "< 50"}
{"smiles": "N#CCCNC1C[C@H]2CC[C@@H]1N2c1nc(OC[C@@]23CCCN2C[C@H](F)C3)nc2c(F)c(-c3ccc(F)c4sc(N)nc34)c(C(F)(F)F)cc12", "note": "(stereo partly drawn) [Example E124, 3-(((1S,4R)-7-(7-(2-amino-7-fluorobenzo[d]thiazol-4-yl)-8-fluoro-2-(((2R,7aS)-2-fluorotetrahydro-1H-pyrrolizin-7a(5H)-yl)methoxy)-6-(trifluoromethyl)quinazolin-4-yl)-7-azabicyclo[2.2.1]heptan-2-yl)amino)propanenitrile]", "IC50": "< 50"}
{"smiles": "C=Cc1cc(N)nc(-c2c(Cl)cc3c(N4CC5CCC(C4)N5)nc(OC[C@@]45CCCN4C[C@H](F)C5)nc3c2F)c1C(F)(F)F", "note": "[Example E125, 6-(4-(3,8-diazabicyclo[3.2.1]octan-3-yl)-6-chloro-8-fluoro-2-(((2R,7aS)-2-fluorotetrahydro-1H-pyrrolizin-7a(5H)-yl)methoxy)quinazolin-7-yl)-5-(trifluoromethyl)-4-vinylpyridin-2-amine]", "IC50": "< 50"}
{"smiles": "Oc1cc(F)c(C(F)(F)F)c(-c2c(Cl)cc3c(N4CC5CCC(C4)N5)nc(OC[C@@]45CCCN4C[C@H](F)C5)nc3c2F)c1", "note": "[Example E126, 3-(4-(3,8-diazabicyclo[3.2.1]octan-3-yl)-6-chloro-8-fluoro-2-(((2R,7aS)-2-fluorotetrahydro-1H-pyrrolizin-7a(5H)-yl)methoxy)quinazolin-7-yl)-5-fluoro-4-(trifluoromethyl)phenol]", "IC50": "< 50"}
{"smiles": "Nc1nc2c(-c3c(C(F)(F)F)cc4c(N5C6CNCC5C6)nc(OC[C@@]56CCCN5C[C@H](F)C6)nc4c3F)ccc(F)c2s1", "note": "[Example E127, 4-(4-(3,6-diazabicyclo[3.1.1]heptan-6-yl)-8-fluoro-2-(((2R,7aS)-2-fluorotetrahydro-1H-pyrrolizin-7a(5H)-yl)methoxy)-6-(trifluoromethyl)quinazolin-7-yl)-7-fluoro benzo[d]thiazol-2-amine]", "IC50": "< 50"}
{"smiles": "Nc1nc2c(-c3cc4nc(OC[C@@]56CCCN5C[C@H](F)C6)nc(N5CC6CCC(C5)N6)c4cc3C(F)(F)F)ccc(F)c2s1", "note": "[Example E128, 4-(4-(3,8-diazabicyclo[3.2.1]octan-3-yl)-2-(((2R,7aS)-2-fluorotetra hydro-1H-pyrrolizin-7a(5H)-yl)methoxy)-6-(trifluoromethyl)quinazolin-7-yl)-7-fluorobenzo[d] thiazol-2-amine]", "IC50": "< 50"}
{"smiles": "Cc1cc(N)nc(-c2c(C3CC3)cc3c(N4CC5CCC(C4)N5)nc(OC[C@@]45CCCN4C[C@H](F)C5)nc3c2F)c1C(F)(F)F", "note": "[Example E129, 6-(4-(3,8-diazabicyclo[3.2.1]octan-3-yl)-6-cyclopropyl-8-fluoro-2-(((2R,7aS)-2-fluorotetrahydro-1H-pyrrolizin-7a(5H)-yl)methoxy)quinazolin-7-yl)-4-methyl-5-(trifluoromethyl)pyridin-2-amine]", "IC50": "< 50"}
{"smiles": "CC(F)(F)c1c(Cl)cc(N)nc1-c1c(Cl)cc2c(N3CC4CCC(C3)N4)nc(OC[C@@]34CCCN3C[C@H](F)C4)nc2c1F", "note": "[Example E130, 6-(4-(3,8-diazabicyclo[3.2.1]octan-3-yl)-6-chloro-8-fluoro-2-(((2R,7aS)-2-fluorotetrahydro-1H-pyrrolizin-7a(5H)-yl)methoxy)quinazolin-7-yl)-4-chloro-5-(1,1-difluoroethyl)pyridin-2-amine]", "IC50": "< 50"}
{"smiles": "COCC1CCC2(COc3nc(N4CC5CCC(C4)N5)c4cc(C(F)(F)F)c(-c5ccc(F)c6sc(N)nc56)c(F)c4n3)CCCN12", "note": "(centres unmarked) [Example E131, 4-(4-(3,8-diazabicyclo[3.2.1]octan-3-yl)-8-fluoro-2-((3-(methoxymethyl)tetrahydro-1H-pyrrolizin-7a(5H)-yl)methoxy)-6-(trifluoromethyl)quinazolin-7-yl)-7-fluorobenzo[d]thiazol-2-amine]", "IC50": "< 50"}
{"smiles": "N#Cc1c(N)sc2c(F)ccc(-c3c(Cl)cc4c(N5CC6CCC(C5)N6)nc(OCC5(CN6CCC(F)C6)CCC5)nc4c3F)c12", "note": "(centres unmarked) [Example E132, 4-(4-(3,8-diazabicyclo[3.2.1]octan-3-yl)-6-chloro-8-fluoro-2-((1-((3-fluoropyrrolidin-1-yl)methyl)cyclobutyl)methoxy)quinazolin-7-yl)-2-amino-7-fluorobenzo [b]thiophene-3-carbonitrile]", "IC50": "< 50"}
{"smiles": "Cc1cc(N)nc(-c2c(Cl)cc3c(N4CC5CCC(C4)N5)nc(OCC45CCCN4C(CF)CC5)nc3c2F)c1C(F)(F)F", "note": "(centres unmarked) [Example E133, 6-(4-(3,8-diazabicyclo[3.2.1]octan-3-yl)-6-chloro-8-fluoro-2-((3-(fluoromethyl)tetrahydro-1H-pyrrolizin-7a(5H)-yl)methoxy)quinazolin-7-yl)-4-methyl-5-(trifluoromethyl)pyridin-2-amine]", "IC50": "< 50"}
{"smiles": "COCC1CC2(COc3nc(N4CC5CCC(C4)N5)c4cc(C(F)(F)F)c(-c5ccc(F)c6sc(N)nc56)c(F)c4n3)CC(F)CN12", "note": "(centres unmarked) [Example E134, 4-(4-(3,8-diazabicyclo[3.2.1]octan-3-yl)-8-fluoro-2-((3-fluoro-7-(methoxymethyl)-1-azabicyclo[3.2.0]heptan-5-yl)methoxy)-6-(trifluoromethyl)quinazolin-7-yl)-7-fluorobenzo[d]thiazol-2-amine]", "IC50": "< 50"}
{"smiles": "Cn1nc(N)c(-c2cc3nc(OC[C@@]45CCCN4C[C@H](F)C5)nc(N4CC5CCC(C4)N5)c3cc2Cl)c1C1CC1", "note": "[Example E135, 4-(4-(3,8-diazabicyclo[3.2.1]octan-3-yl)-6-chloro-2-(((2R,7aS)-2-fluorotetrahydro-1H-pyrrolizin-7a(5H)-yl)methoxy)quinazolin-7-yl)-5-cyclopropyl-1-methyl-1H-pyrazol-3-amine]", "IC50": "> 1000"}
{"smiles": "F[C@H]1CN2CCC[C@@]2(COc2nc(N3CC4CCC(C3)N4)c3cc(Cl)c(-n4ncc5cccc(Cl)c54)cc3n2)C1", "note": "[Example E136, 4-(3,8-diazabicyclo[3.2.1]octan-3-yl)-6-chloro-7-(7-chloro-1H-indazol-1-yl)-2-(((2R,7aS)-2-fluorotetrahydro-1H-pyrrolizin-7a(5H)-yl)methoxy)quinazoline]", "IC50": "> 1000"}
{"smiles": "COC[C@@]1(COc2nc(N3C4CNCC3COC4)c3cc(F)c(-c4nc(N)cc(C)c4C(F)(F)F)c(F)c3n2)C[C@@H](F)CN1C", "note": "[Example E137, 6-(4-(3-oxa-7,9-diazabicyclo[3.3.1]nonan-9-yl)-6,8-difluoro-2-(((2R,4R)-4-fluoro-2-(methoxymethyl)-1-methylpyrrolidin-2-yl)methoxy)quinazolin-7-yl)-4-methyl-5-(trifluoromethyl)pyridin-2-amine]", "IC50": "100 to 1000"}
{"smiles": "COC1CN2CC(F)CC2(COc2nc(N3C4CNCC3COC4)c3cc(F)c(-c4nc(N)cc(C)c4C(F)(F)F)c(F)c3n2)C1", "note": "(centres unmarked) [Example E138, 6-(4-(3-oxa-7,9-diazabicyclo[3.3.1]nonan-9-yl)-6,8-difluoro-2-((2-fluoro-6-methoxytetrahydro-1H-pyrrolizin-7a(5H)-yl)methoxy)quinazolin-7-yl)-4-methyl-5-(trifluoromethyl)pyridin-2-amine]", "IC50": "100 to 1000"}
{"smiles": "Nc1nc2c(-c3c(C(F)(F)F)cc4c(N5C6CNCC5COC6)nc(OCC56CC(F)CN5CC(F)C6)nc4c3F)ccc(F)c2s1", "note": "(centres unmarked) [Example E139, 4-(4-(3-oxa-7,9-diazabicyclo[3.3.1]nonan-9-yl)-2-((2,6-difluorotetrahydro-1H-pyrrolizin-7a(5H)-yl)methoxy)-8-fluoro-6-(trifluoromethyl)quinazolin-7-yl)-7-fluorobenzo[d]thiazol-2-amine]", "IC50": "< 50"}
{"smiles": "Nc1nc2c(-c3c(Cl)cc4c(N5CC6CCC(C5)N6)nc(OC[C@@]56CCCN5C[C@H](F)C6)nc4c3F)cc(Cl)cc2s1", "note": "[Example E140, 4-(4-(3,8-diazabicyclo[3.2.1]octan-3-yl)-6-chloro-8-fluoro-2-(((2R,7aS)-2-fluorotetrahydro-1H-pyrrolizin-7a(5H)-yl)methoxy)quinazolin-7-yl)-6-chlorobenzo [d]thiazol-2-amine]", "IC50": "< 50"}
{"smiles": "Nc1nc2c(-c3c(C(F)(F)F)cc4c(N5CC6CCC(C5)N6)nc(OCC(O)CO)nc4c3F)ccc(F)c2s1", "note": "(centres unmarked) [Example E141, 3-((7-(2-amino-7-fluorobenzo[d]thiazol-4-yl)-4-(3,8-diazabicyclo [3.2.1]octan-3-yl)-8-fluoro-6-(trifluoromethyl)quinazolin-2-yl)oxy)propane-1,2-diol]", "IC50": "< 50"}
{"smiles": "CC(CO)COc1nc(N2CC3CCC(C2)N3)c2cc(C(F)(F)F)c(-c3ccc(F)c4sc(N)nc34)c(F)c2n1", "note": "(centres unmarked) [Example E142, 3-((7-(2-amino-7-fluorobenzo[d]thiazol-4-yl)-4-(3,8-diazabicyclo [3.2.1]octan-3-yl)-8-fluoro-6-(trifluoromethyl)quinazolin-2-yl)oxy)-2-methylpropan-1-ol]", "IC50": "< 50"}
{"smiles": "Nc1nc2c(-c3c(C(F)(F)F)cc4c(N5CC6CCC(C5)N6)nc(OC5CCOC5)nc4c3F)ccc(F)c2s1", "note": "(centres unmarked) [Example E143]", "IC50": "< 50"}
{"smiles": "Nc1nc2c(-c3c(C(F)(F)F)cc4c(N5CC6CCC(C5)N6)nc(OCC5CCOCC5)nc4c3F)ccc(F)c2s1", "note": "[Example E144, 4-(4-(3,8-diazabicyclo[3.2.1]octan-3-yl)-8-fluoro-2-((tetrahydro-2H-pyran-4-yl)methoxy)-6-(trifluoromethyl)quinazolin-7-yl)-7-fluorobenzo[d]thiazol-2-amine]", "IC50": "< 50"}
